Consider two molecules from patent US20240381870A1 (priority 2024, published 2024).

One test concerns wheat scab. The test is classed as in vivo. Particulars: in words; field experiments of both sites (Tables 3 and 4).
Test [1] deals with Fusarium pseudogramineaqum. It is filed as cell-based.
For another test, the system named is Fusarium graminearum. The test is classed as cell-based. Particulars: mycelial growth inhibition, PDA, 25° C.

`O=C(NC1CCC1c1ccc(Cl)cc1Cl)c1cccnc1C(F)(F)F` (stereo not drawn) [Cyclobutrifluram(C), Cyclobutrifluram]: in the test on wheat scab, the “control effect on wheat scab” value is listed as “significant control effect”. Besides, the values for the EC50 ppm (in test [1]; with Fusarium graminearum) were 0.1276 ppm and 0.3744 ppm, respectively.

In the case of `CCCN(CCOc1c(Cl)cc(Cl)cc1Cl)C(=O)n1ccnc1` [Prochloraz(P), Prochloraz], in the test with wheat scab, the “control effect on wheat scab” value is reported as “significant control effect”. The EC50 ppm in test [1] is recorded as 0.2311 ppm; with Fusarium graminearum it was 0.2663 ppm.
